Source: patent publication US9062032B2, “Aminoalkyl-substituted N-thienylbenzamide derivative” (ASTELLAS PHARMA INC., priority 2011, dated 2015)
Where a name gives a salt, the structure may show the parent alone.

Experiments:
rat NPT-IIb = biological target: T1, rat NPT-IIb (Rattus norvegicus, UniProt Q9JJ09); test: Inhibitory action against 33P-phosphate uptake into rat NPT-IIb expression cell; type: cell-based; conditions: HEK293; compound concentration 1 μM; rat NPT-IIb stable expression 293 cells; read-out: Int. 1 (%): inhibition rate of the 33P-phosphate uptake into the rat NPT-IIb
T1 construct: rat NPT-IIb ORF was cloned into p3×FLAG-CMV-10 by PCR; expressed in transfected cells
T1 sequence (Q9JJ09 1-695): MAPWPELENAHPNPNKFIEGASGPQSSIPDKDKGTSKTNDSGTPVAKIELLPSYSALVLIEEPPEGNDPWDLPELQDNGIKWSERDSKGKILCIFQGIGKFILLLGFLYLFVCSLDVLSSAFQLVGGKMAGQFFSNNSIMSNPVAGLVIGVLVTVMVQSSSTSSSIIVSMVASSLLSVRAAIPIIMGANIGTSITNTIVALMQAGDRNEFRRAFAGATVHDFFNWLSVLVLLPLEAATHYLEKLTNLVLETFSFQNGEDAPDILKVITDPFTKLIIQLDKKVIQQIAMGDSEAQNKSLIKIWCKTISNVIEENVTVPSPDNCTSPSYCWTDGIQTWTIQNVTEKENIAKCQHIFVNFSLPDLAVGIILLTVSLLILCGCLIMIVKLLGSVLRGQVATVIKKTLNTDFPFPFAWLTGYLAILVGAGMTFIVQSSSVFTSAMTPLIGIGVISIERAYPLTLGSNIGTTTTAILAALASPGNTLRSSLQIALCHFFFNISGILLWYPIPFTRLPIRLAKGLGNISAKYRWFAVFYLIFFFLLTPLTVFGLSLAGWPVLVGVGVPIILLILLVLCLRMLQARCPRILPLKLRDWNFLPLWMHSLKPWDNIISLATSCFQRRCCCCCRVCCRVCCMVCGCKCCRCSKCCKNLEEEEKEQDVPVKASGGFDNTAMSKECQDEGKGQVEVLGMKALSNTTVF
Text: Inhibitory Action Against ^33P-Phosphate Uptake into Rat NPT-IIb Expression Cell
(1) Preparation of Rat NPT-IIb Expression Cell
A rat small intestine cDNA library was used as a template, and rat NPT-IIb ORF was cloned into p3×FLAG-CMV-10 by PCR according to the prescribed method. Thereafter, 293 cells were transfected with the cloned rat NPT-IIb expression plasmid, thereby obtaining a rat NPT-IIb stable expression cell line by using G418.
(2) Evaluation System for Inhibition of Phosphate Uptake into Rat NPT-IIb Expression Cell
The rat NPT-IIb expression cells were seeded to a 96-well plate, followed by incubation overnight. Thereafter, the culture medium was removed, the plate was washed with buffer A (137 mM N-methyl-D-glucamine, 5.4 mM KCl, 2.8 mM CaCl2, 1.2 mM MgCl2, and 10 mM HEPES (adjusted to pH 7.4 using HCl)), and then buffer B (137 mM NaCl, 5.4 mM KCl, 2.8 mM CaCl2, 1.2 mM MgCl2, 0.1 mM KH2PO4, and 10 mM HEPES (adjusted to pH 7.4 using KOH)) was added thereto. Subsequently, a compound with a concentration of 10 times the evaluation concentration was prepared by dilution with the buffer B and added thereto. After the resultant was incubated in a CO2 incubator, the buffer B supplemented 50 μCi/mL of ^33P was added thereto, and then the resultant was incubated again in a CO2 incubator. After the reaction, the buffer was removed, the plate was washed with buffer C (137 mM NaCl, 10 mM Tris/HCl, pH 7.2). Thereafter, MicroScint-20 was added thereto, and ^33P uptake was measured using TopCount. An inhibition rate was calculated by the following formula. Inhibition rate (%)=(1−(^33P uptake of well treated with chemical)/(^33P uptake of DMSO-added well))×100
Table 1 illustrates examples of the inhibition rate (Int. 1) of the ^33P-phosphate uptake into the rat NPT-IIb in some of the compounds of the present invention at a concentration of drug efficacy evaluation of 1 μM. Here, Ex represents the number of example compounds described later (the same shall apply hereinafter).

[1] = system: phosphate absorption from the intestinal tract; test: Action of inhibiting increase in blood radioactivity in rat orally loaded with 32P phosphate (phosphate absorption inhibitory action); type: in vivo; conditions: male Wistar rats, 3 mg/kg oral, 32P phosphate load 5 min after dosing, serum radioactivity AUC0-30 min
Experimental: Action of Inhibiting Increase in Blood Radioactivity in Rat Orally Loaded with ^32P Phosphate (Phosphate Absorption Inhibitory Action)
Male Wistar rats (6- to 7-week old) were fasted for 24 hours and then used as experimental animals. The compound was suspended or dissolved with a solvent, and was used at a concentration of 0.6 mg/mL. The compound was forcibly orally administered at a dose of 3 mg/kg to the animals of a compound-administered group. Control-group animals were administered a solvent containing no compound at a dose of 5 mL/kg. After 5 minutes from administration of the compound or the solvent, a ^32P-containing phosphate solution (8.3 mM NaH2PO4) was orally administered thereto at a dose of 7.2 mL/kg. After 15 minutes and 30 minutes, the blood was taken from the orbital venous plexus and the serum was collected. Radioactivity in 0.1 mL of the serum was measured by a liquid scintillation counter. AUC0-30 min in calculated from the measured counts was considered as a phosphate absorption amount. The phosphate absorption inhibitory rate was determined from the AUC0-30 min value according to the following formula. Inhibition rate of phosphate absorption (%)=(1−phosphate absorption count of compound-administered group/phosphate absorption count of standard group)×100
Table 2 illustrates examples of the inhibition rate (Int. 2) of phosphate absorption in regard to some of the compounds of Formula (I).

Row | Compound | inhibition at 1 µM (rat NPT-IIb) | Int. 2 (%): inhibition rate of phosphate absorption [1]
1 | CCC(CC)N(CCN(C)C(=O)CCC(=O)O)Cc1cccc(C(=O)Nc2sc3c(c2C(=O)Nc2ccc(CCc4ccc(C(=O)O)cc4)cc2)CCCC3)c1.Cl [Example 2, 4-(2-{4-[({2-[(3-{[{2-[(3-carboxypropanoyl)(methyl)amino]ethyl}(pentan-3-yl)amino]methyl}benzoyl)amino]-4,5,6,7-tetrahydro-1-benzothiophen-3-yl}carbonyl)amino]phenyl}ethyl)benzoic acid hydrochloride] | 87% | >60%
2 | CCC(CC)N(CCN(C)C(=O)CCC(=O)O)Cc1cccc(C(=O)Nc2sc(C3CCCCC3)cc2C(=O)Nc2ccc(CCc3ccc(C(=O)O)cc3)cc2)c1 [Example 41] | 73% | –
3 | CC(C)[C@@H](C)N(CCN(C)C(=O)CCC(=O)O)Cc1cccc(C(=O)Nc2sc3c(c2C(=O)Nc2ccc(CCc4ccc(C(=O)O)cc4)cc2)CCCC3)c1 [Example 70] | 60% | –
4 | CC(C)N(CCN(C)C(=O)CCC(=O)O)Cc1cccc(C(=O)Nc2sc3c(c2C(=O)Nc2ccc(CCc4ccc(C(=O)O)cc4)cc2)CCCC3)c1 [Example 38] | 61% | –
5 | CCC(CC)N(CCN(C)C(=O)CCC(=O)O)Cc1cccc(C(=O)Nc2sc3c(c2C(=O)Nc2ccc(CCc4ccc(C(=O)O)cc4)cc2)CCCCCC3)c1 [Example 43] | 65% | –
6 | CCC(CC)N(CCN(C)C(=O)CCC(=O)O)Cc1cccc(C(=O)Nc2sc3c(c2C(=O)Nc2ccc(CCc4ccc(C(=O)O)cc4)nc2)CCCC3)c1 [Example 96] | 70% | –
7 | CCN(CCN(Cc1cccc(C(=O)Nc2sc3c(c2C(=O)Nc2ccc(CCc4ccc(C(=O)O)cc4)cc2)CCCC3)c1)C1CC1)C(=O)CCC(=O)O [Example 31] | 87% | –
8 | CCC(CC)N(CCCN(C)C(=O)CCC(=O)O)Cc1cccc(C(=O)Nc2sc3c(c2C(=O)Nc2ccc(CCc4ccc(C(=O)O)cc4)cc2)CCCC3)c1.Cl [Example 66] | 76% | 59%
9 | CCC(CC)N(CCN(C)C(=O)CCC(C)(C)C(=O)O)Cc1cccc(C(=O)Nc2sc3c(c2C(=O)Nc2ccc(CCc4ccc(C(=O)O)cc4)cc2)CCCC3)c1 [Example 67, 4-(2-{4-[({2-[(3-{[{2-[(4-carboxy-4-methylpentanoyl)(methyl)amino]ethyl}(pentan-3-yl)amino]methyl}benzoyl)amino]-4,5,6,7-tetrahydro-1-benzothiophen-3-yl}carbonyl)amino]phenyl}ethyl)benzoic acid hydrochloride] | 89% | –
10 | CCC(CC)N(Cc1cccc(C(=O)Nc2sc3c(c2C(=O)Nc2ccc(CCc4ccc(C(=O)O)cc4)cc2)CCCC3)c1)C(=O)CCC(C)(C)C(=O)O [Example 109, 4-(2-{4-[({2-[(3-{[(4-carboxy-4-methylpentanoyl)(pentan-3-yl)amino]methyl}benzoyl)amino]-4,5,6,7-tetrahydro-1-benzothiophen-3-yl}carbonyl)amino]phenyl}ethyl)benzoic acid] | 86% | –
11 | CCC(CC)N(CCN(C)C(=O)CCC(=O)O)Cc1cc(C(=O)Nc2sc3c(c2C(=O)Nc2ccc(CCc4ccc(C(=O)O)cc4)cc2)CCCC3)ccn1 [Example 99] | 71% | –
12 | CCC(CC)N(Cc1cccc(C(=O)Nc2sc3c(c2C(=O)Nc2ccc(CCc4ccc(C(=O)O)cc4)cc2)CCCC3)c1)C(=O)CC(C)(C)CC(=O)O [Example 121, 4-(2-{4-[({2-[(3-{[(4-carboxy-3,3-dimethylbutanoyl)(pentan-3-yl)amino]methyl}benzoyl)amino]-4,5,6,7-tetrahydro-1-benzothiophen-3-yl}carbonyl)amino]phenyl}ethyl)benzoic acid] | 79% | –
13 | CCC(CC)N(CCc1cccc(C(=O)Nc2sc3c(c2C(=O)Nc2ccc(CCc4ccc(C(=O)O)cc4)cc2)CCCC3)c1)CCN(C)C(=O)CCC(=O)O [Example 79] | 75% | –
14 | CN(CCN(Cc1cccc(C(=O)Nc2sc3c(c2C(=O)Nc2ccc(CCc4ccc(C(=O)O)cc4)cc2)CCCC3)c1)C1CC1)C(=O)CCC(=O)O [Example 37] | 77% | –
15 | CCC(CC)N(CCN(CCOC)C(=O)CCC(=O)O)Cc1cccc(C(=O)Nc2sc3c(c2C(=O)Nc2ccc(CCc4ccc(C(=O)O)cc4)cc2)CCCC3)c1.Cl [Example 60] | 86% | 56%
16 | CC(C)N(Cc1cccc(C(=O)Nc2sc3c(c2C(=O)Nc2ccc(CCc4ccc(C(=O)O)cc4)cc2)CCCC3)c1)[C@H]1CC[C@H](C(=O)O)CC1 [Example 172] | 48% | –
17 | CCC(CC)N(CCN(C)C(=O)CCC(=O)O)Cc1cccc(C(=O)Nc2sc3c(c2C(=O)Nc2ccc(CCCc4ccc(C(=O)O)cc4)cc2)CCCC3)c1 [Example 53] | 85% | –
18 | CCC(CC)N(CCN(C)C(=O)OCC(=O)O)Cc1cccc(C(=O)Nc2sc3c(c2C(=O)Nc2ccc(CCc4ccc(C(=O)O)cc4)cc2)CCCC3)c1.Cl [Example 4, 4-(2-{4-[({2-[(3-{[(2-{[(carboxymethoxy)carbonyl](methyl)amino}ethyl)(pentan-3-yl)amino]methyl}benzoyl)amino]-4,5,6,7-tetrahydro-1-benzothiophen-3-yl}carbonyl)amino]phenyl}ethyl)benzoic acid hydrochloride] | 77% | 53%
